This passage reports inhibition results from patent US7897602B2, “Indolinone compounds as kinase inhibitors” (Development Center for Biotechnology, priority 2009, dated 2011).

The structures appear in SMILES notation.

For experiment [1], the target named is T1, Flt3 kinase (Homo sapiens, UniProt P36888).
T1 construct: recombinant N-terminal 6×His-tagged Flt3 kinase domain construct expressed from baculovirus; 6xHis (N); made in house
T1 sequence (P36888 610-943 limits assumed): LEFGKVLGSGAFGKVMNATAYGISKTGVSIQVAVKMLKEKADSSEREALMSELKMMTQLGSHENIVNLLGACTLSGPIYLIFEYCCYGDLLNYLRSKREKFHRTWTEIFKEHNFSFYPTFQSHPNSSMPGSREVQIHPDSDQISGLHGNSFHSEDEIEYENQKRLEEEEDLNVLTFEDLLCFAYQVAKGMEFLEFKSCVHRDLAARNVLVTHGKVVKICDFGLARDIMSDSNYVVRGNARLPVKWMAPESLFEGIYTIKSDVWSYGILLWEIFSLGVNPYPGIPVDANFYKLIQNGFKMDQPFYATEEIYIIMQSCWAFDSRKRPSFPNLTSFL
The experiment in a line: Flt3 kinase assay (33P incorporation into Poly(Glu-Tyr)). The class given is biochemical. Particulars: 100 nM test compound; read-out: Inhibition at 100 nM (%) Flt-3. The essentials: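 Baculovirus-expressed His-tagged Flt3 kinase domain (5 ng) with Poly(Glu-Tyr) 4:1 substrate, 100 μM ATP plus [33P]-γ-ATP, in MOPS pH 7.0 buffer, 30 min at 30 °C. Compound tested at a single 100 nM concentration; filter-bound radioactivity counted and percent inhibition calculated relative to DMSO control.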

Experiment [2] concerns the target T2, VEGFR2 kinase (Homo sapiens, UniProt P35968).
T2 construct: recombinant N-terminal 6×His-tagged VEGFR2 kinase domain construct expressed by baculovirus; 6xHis (N); made in house
Description: VEGFR2 kinase assay (33P incorporation into Poly(Glu-Tyr)). Type of experiment: biochemical. Particulars: 500 nM test compound; read-out: Inhibition at 500 nM (%) VEGFr-2. A digest of the protocol:
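Recombinant baculovirus-expressed N-terminal His6-tagged VEGFR2 kinase domain (6.25 ng) phosphorylated poly(Glu-Tyr) 4:1 with 100 μM ATP plus [33P]-γ-ATP in MOPS pH 7.0, 30 °C, 30 min. Test compound was at 500 nM (4% DMSO). Filter-retained radioactivity relative to DMSO control gave % inhibition.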

T2 sequence (P35968 834-1162 limits assumed): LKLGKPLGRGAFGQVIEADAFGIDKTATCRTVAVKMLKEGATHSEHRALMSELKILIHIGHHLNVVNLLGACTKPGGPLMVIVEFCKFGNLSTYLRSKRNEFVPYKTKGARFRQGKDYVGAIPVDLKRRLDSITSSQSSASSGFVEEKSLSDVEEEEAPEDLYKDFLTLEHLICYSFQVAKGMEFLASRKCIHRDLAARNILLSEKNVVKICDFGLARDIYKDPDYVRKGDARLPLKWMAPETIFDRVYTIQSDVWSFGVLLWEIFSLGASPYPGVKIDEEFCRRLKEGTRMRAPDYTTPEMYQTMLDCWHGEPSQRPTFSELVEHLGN

Regarding `CN(C)S(=O)(=O)c1ccc2c(c1)/C(=C/c1[nH]c3c(c1CCC(=O)O)C(=O)CCC3)C(=O)N2` [DCB-70121, (Z)-5-(N,N-dimethylsulfamoyl)-3-((3-carboxyethyl-4-oxo-4,5,6,7-tetrahydro-1H-indol-2-yl)methylene)indolin-2-one], the inhibition at 0.1 µM in experiment [1] was determined as 14.6%. For the same compound, in experiment [2], the inhibition at 0.5 µM turned out to be 19.6%.
The corresponding values for `O=C(O)CCc1c(/C=C2\C(=O)Nc3cc(-c4cc5ccccc5s4)ccc32)[nH]c2c1C(=O)CCC2` [DCB-70080, (Z)-6-(benzo[b]thiophen-2-yl)-3-((3-carboxyethyl-4-oxo-4,5,6,7-tetrahydro-1H-indol-2-yl)methylene)indolin-2-one] are 7.4% and 76.9%.
The corresponding values for `O=C(O)CCc1c(/C=C2\C(=O)Nc3ccc(S(=O)(=O)N4CCOCC4)cc32)[nH]c2c1C(=O)CCC2` [DCB-70088, (Z)-5-morpholinosulfonyl-3-((3-carboxyethyl-4-oxo-4,5,6,7-tetrahydro-1H-indol-2-yl)methylene)indolin-2-one] are -2.1% and 17.2%.
Taken in the same sequence, the figures for `CN1CCN(C(=O)CCc2c(/C=C3\C(=O)Nc4ccc(S(=O)(=O)N5CCCC5)cc43)[nH]c3c2C(=O)CCC3)CC1` [DCB-70120, (Z)-3-((3-(3-(4-methylpiperazin-l-yl)-3-oxopropyl)-4-oxo-4,5,6,7-tetrahydro-1H-indol-2-yl)methylene)-5-(pyrrolidin-1-ylsulfonyl)indolin-2-one] were 31.2% and 17.6%.
In the case of `COc1ccc(-c2ccc3c(c2)/C(=C/c2[nH]c4c(c2CCC(=O)O)C(=O)CCC4)C(=O)N3)cc1OC` [DCB-70068, (Z)-5-(3,4-dimethoxyphenyl)-3-((3-carboxyethyl-4-oxo-4,5,6,7-tetrahydro-1H-indol-2-yl)methylene)indolin-2-one], the inhibition at 0.1 µM in experiment [1] worked out at 15.6%. In addition, the inhibition at 0.5 µM in experiment [2] was determined as 48.4%.
The corresponding values for `O=C(O)CCc1c(/C=C2\C(=O)Nc3ccc(S(=O)(=O)N4CCCCC4)cc32)[nH]c2c1C(=O)CCC2` [DCB-70114, (Z)-5-(piperidin-1-ylsulfonyl)-3-((3-carboxyethyl-4-oxo-4,5,6,7-tetrahydro-1H-indol-2-yl)methylene)indolin-2-one] are 12% and 22.6%.
For `O=C(O)CCc1c(/C=C2\C(=O)Nc3cc(-c4ccc(F)cc4)ccc32)[nH]c2c1C(=O)CCC2` [DCB-70099, (Z)-6-(4-fluorophenyl)-3-((3-carboxyethyl-4-oxo-4,5,6,7-tetrahydro-1H-indol-2-yl)methylene)indolin-2-one], the inhibition at 0.1 µM in experiment [1] came to 6.9%. Further, in experiment [2], the inhibition at 0.5 µM was 79%.
As to `CCOC(=O)CCc1c(/C=C2\C(=O)Nc3ccc(NC(=O)Nc4ccccc4)cc32)[nH]c2c1C(=O)CCC2` [DCB-70134, (Z)-ethyl 3-(4-oxo-2-((2-oxo-5-(3-phenylureido)indolin-3-ylidene)methyl)-4,5,6,7-tetrahydro-1H-indol-3-yl)propanoate], the inhibition at 0.1 µM in experiment [1] amounted to 40.9%. In experiment [2], the inhibition at 0.5 µM was found to be 20.7%.
Taken in the same sequence, the figures for `O=C(O)CCc1c(/C=C2\C(=O)Nc3ccc(S(=O)(=O)Cc4ccccc4)cc32)[nH]c2c1C(=O)CCC2` [DCB-70071, (Z)-5-benzylsulfonyl-3-((3-carboxyethyl-4-oxo-4,5,6,7-tetrahydro-1H-indol-2-yl)methylene)indolin-2-one] were 21.2% and 91.8%.
Taken in the same sequence, the figures for `COc1ccc(NC(=O)Nc2ccc3c(c2)/C(=C/c2[nH]c4c(c2CCC(=O)O)C(=O)CCC4)C(=O)N3)cc1` [DCB-70094, (Z)-5-(3-(4-methoxyphenyl)ureido)-3-((3-carboxyethyl-4-oxo-4,5,6,7-tetrahydro-1H-indol-2-yl)methylene)indolin-2-one] were 52.8% and 79.8%.
